From US11529344B2, “EZH2 inhibitor combination therapies” (Pfizer Inc., priority 2017, dated 2022)

Experiments:
[1] = tested on: H3K27Me2 in DMS114 tumors; assay: H3K27Me2 ELISA on histones of DMS114 xenograft tumors; type: in vivo, female NOD/SCID mice; conditions: Mus musculus, DMS-114, 1320 h; 300 mg/kg BID, tumors harvested at Day 55; read-out: maximum inhibition of H3K27Me2 in tumor samples
Procedure: Extracts were aliquoted and stored at −20° C. (short term) or −80° C. (long term). […] Data was analyzed using GraphPad Prism version 7.02.
The in vivo activity of Compound 1 against EZH2 in the DMS114 SCLC xenograft model was determined by measurement of the relative amount of cellular H3K27Me3 and Me2 levels with ELISA using the tumor tissue samples harvested at Day 55 from the study described in Example 3 above.

[2] = tested on: H446 SCLC cells; assay: Cell growth inhibition assay, H446 SCLC cells; type: cell-based; conditions: Homo sapiens, NCI-H446, 504 h; H446 cell line, 21 days of treatment; read-out: inhibition of cell proliferation, mean IC50
Procedure: (§1) COR-L88 (92031917) cells were purchased from ECACC. […] No. 1565565).
(§2) H841, H446 and H69 cells were plated in their recommended complete culture medium described above (1 mL/well) in triplicate 12 well plates for each cell line at a density of 100,000 cells per well. Plates were incubated overnight at 37° C. and 5% CO2. Compound 1 stock was prepared at 50 mM in DMSO and was dispensed to several single-use aliquots and stored at −20° C. To prepare the compound plate, Compound 1 was diluted to 3 mM in DMSO and then 3-fold serial dilution were made in DMSO (10 doses in total). […] On Day 21, cell morphology was observed under microscope and any morphology changes upon compound treatment were recorded. […] Cell viability was measured using according to manufacturer's instructions.
(§3) Based on the strong activity observed with Compound 1 in DMS114 cells (see example 1 above), the antiproliferative activity of Compound 1 was also tested in 3 additional SCLC cell lines, namely H841, H446 and H69 using the cell proliferation assay described above. Each cell line was treated with different concentrations of Compound 1 using a 10-point dose curve (1:3 dilution in DMSO) with 3 μM to 0.1 nM for 21 days and then assessed for cell viability. […]

[3] = tested on: DMS114 SCLC cells; assay: Cell growth inhibition assay for DMS114 SCLC cells; type: cell-based; conditions: Homo sapiens, DMS-114, 17-21 days of treatment, mean of 6 biological replicates, read-out: Proliferation IC50 ± SD (nM) (n)
Procedure: as §1
DMS114 SCLC cells were plated in complete cell culture medium described above (1 mL/well) in a 12-well clear, flat bottom polystyrene tissue culture plate (Falcon, Cat. 353225) at a density of 10,000 cells/well. Plates were incubated overnight for 16 hours at 37° C. and 5% CO2. Cells were then treated for 3 days with a 10-point, 3-fold serial dilution of Compound 1 starting at a high concentration of 3 μM. After 3 days, cells from each individual dose treatment were dissociated with Trypsin-EDTA (0.25%) (Gibco/Life Technologies Cat. 25200-056), resuspended in fresh medium, and counted using Vi-Cell cell counter and cell viability analyzer (Beckman Coulter, cat. 383556). […] Plates were then read in an Infinite M200 Pro microplate reader (Tecan Cat. 396235) using a fluorescence excitation wavelength of 540 nm to 570 nm (peak excitation is 570 nm) and emission at 580 nm to 610 nm (peak emission is 585 nm). IC50 values were calculated using nonlinear regression dose response curve fit in GraphPad Prism version 7.02.
The activity of Compound 1 in inhibiting cell proliferation of EZH2-WT DMS114 SCLC cells was also assessed using the cell proliferation assay for DMS114 SCLC cells described above. […]

[4] = tested on: H69 SCLC cells; assay: Cell growth inhibition assay, H69 SCLC cells; type: cell-based; conditions: Homo sapiens, NCI-H69, 504 h; H69 cell line, 21 days of treatment; read-out: inhibition of cell proliferation, mean IC50
Procedure: as §1, §2, §3

COc1cc(C)[nH]c(=O)c1CN1CCc2c(Cl)cc([C@H](OC)C3COC3)c(Cl)c2C1=O [Compound 1, 5,8-dichloro-2-[(4-methoxy-6-methyl-2-oxo-1,2-dihydro-pyridin-3-yl)methyl]-7-[(R)-methoxy(oxetan-3-yl)methyl]-3,4-dihydroisoquinolin-1(2H)-one]
inhibition at 300 mg/kg [1]: 82%
IC50 [2]: 0.109 µM
IC50 [3]: 18.8 nM
IC50 [4]: 0.224 µM
